Data as given in BindingDB's records for doi:10.1016/S0960-894X(01)80539-4 (1994).

Target: Sigma-1 receptor (Cavia porcellus)
Assay: In vitro binding affinity towards sigma receptor by the displacement of [3H]PPP from guinea pig brain

IC50	SMILES
0.088 µM	OC(CCCN1CCN(c2ncc(F)cn2)CC1)c1ccc(F)c2ccccc12 (configuration not stated) [1-(4-Fluoro-naphthalen-1-yl)-4-[4-(5-fluoro-pyrimidin-2-yl)-piperazin-1-yl]-butan-1-ol]
0.215 µM	NC(CCCN1CCN(c2ncc(F)cn2)CC1)c1ccc(F)c2ccccc12 (configuration not stated) [1-(4-Fluoro-naphthalen-1-yl)-4-[4-(5-fluoro-pyrimidin-2-yl)-piperazin-1-yl]-butylamine]
0.012 µM	OC(CCCN1CCN(c2ncc(F)cn2)CC1)C1CCCCC1 (configuration not stated) [1-Cyclohexyl-4-[4-(5-fluoro-pyrimidin-2-yl)-piperazin-1-yl]-butan-1-ol]
0.052 µM	NC(CCCN1CCN(c2ncc(F)cn2)CC1)C1CCCCC1 (configuration not stated) [1-Cyclohexyl-4-[4-(5-fluoro-pyrimidin-2-yl)-piperazin-1-yl]-butylamine]
> 0.1 µM	O=C(NC(CCCN1CCN(c2ncc(F)cn2)CC1)c1ccc(F)cc1)c1ccc(F)cc1 (configuration not stated) [4-Fluoro-N-{1-(4-fluoro-phenyl)-4-[4-(5-fluoro-pyrimidin-2-yl)-piperazin-1-yl]-butyl}-benzamide]
> 0.045 µM	O=S(=O)(CCCN1CCN(c2ncc(F)cn2)CC1)c1ccc(F)cc1 [5-Fluoro-2-{4-[3-(4-fluoro-benzenesulfonyl)-propyl]-piperazin-1-yl}-pyrimidine]
0.089 µM	Fc1ccc(OCCCN2CCN(c3ncc(F)cn3)CC2)cc1 [5-Fluoro-2-{4-[3-(4-fluoro-phenoxy)-propyl]-piperazin-1-yl}-pyrimidine]
0.051 µM	Fc1ccc(SCCCN2CCN(c3ncc(F)cn3)CC2)cc1 [5-Fluoro-2-{4-[3-(4-fluoro-phenylsulfanyl)-propyl]-piperazin-1-yl}-pyrimidine]
0.023 µM	Fc1ccc(CCCCN2CCN(c3ncc(F)cn3)CC2)cc1 [5-Fluoro-2-{4-[4-(4-fluoro-phenyl)-butyl]-piperazin-1-yl}-pyrimidine]
3.5 µM	O=C(OC(CCCN1CCN(c2ncc(F)cn2)CC1)c1ccc(F)cc1)c1ccccc1 (configuration not stated) [Benzoic acid 1-(4-fluoro-phenyl)-4-[4-(5-fluoro-pyrimidin-2-yl)-piperazin-1-yl]-butyl ester]
> 0.049 µM	CC(=O)NC(CCCN1CCN(c2ncc(F)cn2)CC1)c1ccc(F)cc1 (configuration not stated) [N-{1-(4-Fluoro-phenyl)-4-[4-(5-fluoro-pyrimidin-2-yl)-piperazin-1-yl]-butyl}-acetamide]
> 0.002 µM	O=C(NC(CCCN1CCN(c2ncc(F)cn2)CC1)C1CCCCC1)c1ccc(F)cc1 (configuration not stated) [N-{1-Cyclohexyl-4-[4-(5-fluoro-pyrimidin-2-yl)-piperazin-1-yl]-butyl}-4-fluoro-benzamide]
